Where a name gives a salt, the structure may show the parent alone.
What was measured:
[1] = target: T1, RORγ (Homo sapiens, UniProt P51449); experiment: Jurkat cell luciferase assay (human IL17 promoter reporter, RORγt overexpression); format: cell-based; conditions: mean pIC50; detection limit of the assay 5
T1 construct: expressed in transfected cells
T1 sequence (P51449 1-497 isoform P51449-2): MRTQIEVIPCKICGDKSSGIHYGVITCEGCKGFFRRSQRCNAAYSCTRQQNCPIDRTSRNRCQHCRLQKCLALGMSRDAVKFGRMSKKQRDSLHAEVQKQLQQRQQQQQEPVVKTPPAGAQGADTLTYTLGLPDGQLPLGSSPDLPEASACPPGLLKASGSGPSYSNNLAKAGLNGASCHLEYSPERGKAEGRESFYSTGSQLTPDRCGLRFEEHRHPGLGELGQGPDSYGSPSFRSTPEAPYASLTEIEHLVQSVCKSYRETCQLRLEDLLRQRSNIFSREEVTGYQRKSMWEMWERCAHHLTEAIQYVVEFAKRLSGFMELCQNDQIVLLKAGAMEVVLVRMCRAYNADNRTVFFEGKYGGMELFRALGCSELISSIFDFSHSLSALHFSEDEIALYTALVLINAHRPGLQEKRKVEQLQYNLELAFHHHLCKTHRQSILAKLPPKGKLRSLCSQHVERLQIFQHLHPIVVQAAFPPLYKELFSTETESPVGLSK
Text: RORγ is known to bind to a CNS (conserved non-coding sequences) enhancer element in the IL17 promoter. In this assay, RORγ activity is indirectly assessed using a luciferase reporter construct which contains the human IL17 promoter having the RORγ-specific CNS enhancer element. Inhibition of RORγ activity by a compound will result in a decrease in luciferase activity of Jurkat cells transfected with the reporter construct.
. For the 1.1 Kb fragment, PCR was used to amplify human IL17 proximal promoter region from genomic DNA of 293T cells using primers as follows: forward primer, 5′-[…]-3′ (SEQ ID NO. 4) (Xhol site is underlined) and reverse primer, 5′-[…]-3′ SEQ ID NO. 5) (HindIII site is underlined). The 1.1 kb DNA bands were excised, purified, and inserted into pMD19-T Simple Vector (Takara). After DNA sequencing confirmation, the 1.1 kb DNA was digested with XhoI and HindIII and inserted into XhoI/HindIII sites of pGL4.31[luc2P/GAL4UAS/Hygro] (Promega) to generate the pIL17-lkb-luc reporter construct. For the 1.9 Kb fragment, PCR was used to amplify human IL17 promoter region from genomic DNA using primers as follows: forward primer, 5′-[…]-3′ (SEQ ID NO. 6) (KpnI site is underlined) and reverse primer, 5′-[…]-3′ (SEQ ID NO. 7)(XhoI site is underlined). The resulting 1.9 kb DNA bands were excised, gel purified, and cloned into a pMD19-T Simple Vector (Takara). […] The 1.9 kb DNA fragment was released by double digestion with KpnI and XhoI and inserted into pIL17-lkb-luc to generate the luciferase reporter plasmid “pIL17-3kb-CNS-luc.” To overexpress RORγt, the full-length cDNA of human RORγt identical to the published sequence NM13 001001523 was cloned into pcDNA3.1 at the KpnI-NotI cloning sites to generate the RORγt overexpression plasmid “CDNA3.1DhRORγ49-8”. […]
Compounds were dissolved in DMSO at three concentrations, 10 mM, 400 uM and 16 uM, and were dispensed into 384-wells assay plate at 40 nl, 12.5 nl, 5 nl respectively. The volume was adjusted with pure DMSO to a give a final uniform volume of 40 nl Jurkat cells described above were counted and centrifuged. […]

[2] = In vitro percutaneous study (Franz diffusion cells, aqueous cream); format: in vitro ADME, human
Text: The in vitro percutaneous study is aimed to predict the level of percutaneous penetration obtained for a compound in a topical formulation for psoriasis. This assay coupled with the intrinsic potency of the compound are used to predict the likelihood of success of a compound to engage the target. The higher the ratio of the percutaneous penetration to the intrinsic potency, the higher the ratio of local skin concentration to the intrinsic potency and therefore the higher the chance of a compound to engage the target in a topical formulation.
The compounds were manufactured in a modified aqueous cream at pH=6.
The study was conducted with dermatomed abdominal human skin sourced from three skin donors using 2 cm2 Franz diffusion cells. The receiving fluid consisted of Bovine serum albumin (4% w/v) in 0.1% w/v sodium azide in Phospate Buffer Saline and was heated at 37° C. in order to obtain 32° C. at the skin surface. The cream formulation was applied on the donor side at a 10 mg dose, i.e. 5 mg/cm^2. The samples taken at the following time points: t=0, 3, 6, 9 and 24 h. The receiver samples were then assayed using a method based upon protein precipitation with acetonitrile followed by LC/MS/MS analysis. The percutaneous flux (in ng/cm^2/hr) was determined using the individual API (in a multiple composition) that had permeated into the receiver compartment over 24 hrs per cm^2.

Cc1c(CN2CCN(C(=O)C3CCCC3)[C@@H](C)C2)cc(Cl)cc1NC(=O)c1cccc(C#N)c1 [Example 193, (S)-N-(5-chloro-3-((4-(cyclopentanecarbonyl)-3-methylpiperazin-1-yl)methyl)-2-methylphenyl)-3-cyanobenzamide, trifluoroacetic acid salt]
IC50 [1]: ~2.51 nM

Cc1c(CN2CCN(C(=O)C3CCCC3)[C@@H](C)C2)cc(F)cc1NC(=O)c1cccc(C#N)c1 [Example 66, (S)-3-cyano-N-(3-((4-(cyclopentanecarbonyl)-3-methylpiperazin-1-yl)methyl)-5-fluoro-2-methylphenyl)benzamide]
IC50 [1]: ~5.01 nM
Flux over 24 hrs ([2]; 1.0% w/w in aqueous cream pH=6, 5 mg/cm^2, human skin from three donors): 3.43 ng/cm^2/hr
ratio of percutaneous penetration (Flux) to intrinsic potency (Th17 cell differentiation assay IC50) ([2]; ranking among the three compounds tested): highest ratio
